Measured values reported in ChEMBL document CHEMBL5352478, “Novel pyridine-containing histone deacetylase inhibitors strongly arrest proliferation, induce apoptosis and modulate miRNAs in cancer cells” (Eur J Med Chem, 2023).
pIC50: −log10 of the molar value.

Columns and labels:
Histone deacetylase 3 = Histone deacetylase 3 (Homo sapiens, UniProt O15379)
Histone deacetylase 8 [1] = target: T1, Histone deacetylase 8 (Homo sapiens, UniProt Q9BY41)
T1 sequence (Q9BY41 whole entry): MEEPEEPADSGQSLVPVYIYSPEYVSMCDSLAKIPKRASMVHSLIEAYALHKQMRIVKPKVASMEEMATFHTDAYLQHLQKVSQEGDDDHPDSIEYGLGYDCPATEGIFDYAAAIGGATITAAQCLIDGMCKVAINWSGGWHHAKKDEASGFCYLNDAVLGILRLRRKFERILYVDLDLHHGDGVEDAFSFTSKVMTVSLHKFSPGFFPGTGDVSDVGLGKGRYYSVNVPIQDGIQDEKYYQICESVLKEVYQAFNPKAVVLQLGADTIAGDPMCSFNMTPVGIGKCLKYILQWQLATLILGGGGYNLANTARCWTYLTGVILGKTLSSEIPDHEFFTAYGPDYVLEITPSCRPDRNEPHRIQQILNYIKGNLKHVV

A549 = experiment: cells; format: functional, cell-based; conditions: Homo sapiens, A549, 72 h
[2] = target: T2, Protein deacetylase HDAC6 (Homo sapiens, UniProt Q9UBN7); conditions: for pIC50: read-out: IC50
T2 sequence (Q9UBN7 whole entry): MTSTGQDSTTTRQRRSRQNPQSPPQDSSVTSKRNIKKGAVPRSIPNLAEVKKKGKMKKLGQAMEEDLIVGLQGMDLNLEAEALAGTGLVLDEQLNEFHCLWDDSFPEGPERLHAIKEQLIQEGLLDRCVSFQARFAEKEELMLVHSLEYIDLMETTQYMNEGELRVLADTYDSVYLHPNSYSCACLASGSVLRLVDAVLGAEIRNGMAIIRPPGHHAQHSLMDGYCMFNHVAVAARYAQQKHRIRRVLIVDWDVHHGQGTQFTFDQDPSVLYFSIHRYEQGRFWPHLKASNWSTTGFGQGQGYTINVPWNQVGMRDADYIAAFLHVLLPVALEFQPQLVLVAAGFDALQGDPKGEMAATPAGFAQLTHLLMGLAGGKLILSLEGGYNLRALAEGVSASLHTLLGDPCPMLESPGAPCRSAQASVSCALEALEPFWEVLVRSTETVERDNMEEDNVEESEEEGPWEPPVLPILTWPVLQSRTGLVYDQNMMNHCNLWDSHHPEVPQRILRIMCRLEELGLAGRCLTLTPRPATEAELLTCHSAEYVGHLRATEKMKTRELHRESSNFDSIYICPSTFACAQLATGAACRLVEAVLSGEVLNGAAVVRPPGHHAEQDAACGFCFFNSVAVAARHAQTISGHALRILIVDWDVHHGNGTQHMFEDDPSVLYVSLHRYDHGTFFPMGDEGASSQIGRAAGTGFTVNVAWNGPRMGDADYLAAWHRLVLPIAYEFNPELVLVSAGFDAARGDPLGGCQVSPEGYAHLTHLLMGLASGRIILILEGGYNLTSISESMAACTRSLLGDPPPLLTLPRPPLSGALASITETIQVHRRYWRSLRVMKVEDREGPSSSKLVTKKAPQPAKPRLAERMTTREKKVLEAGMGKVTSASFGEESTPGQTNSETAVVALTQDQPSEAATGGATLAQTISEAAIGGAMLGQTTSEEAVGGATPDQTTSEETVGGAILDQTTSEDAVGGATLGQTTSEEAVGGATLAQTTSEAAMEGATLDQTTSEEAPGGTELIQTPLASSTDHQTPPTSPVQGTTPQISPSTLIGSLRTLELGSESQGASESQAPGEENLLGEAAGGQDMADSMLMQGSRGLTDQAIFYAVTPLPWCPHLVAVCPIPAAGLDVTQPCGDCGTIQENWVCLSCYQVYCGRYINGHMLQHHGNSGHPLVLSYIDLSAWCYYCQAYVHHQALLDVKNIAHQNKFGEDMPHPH

Histone deacetylase 4 = Histone deacetylase 4 (Homo sapiens, UniProt P56524); conditions: for pIC50: read-out: IC50
Histone deacetylase 1 = Histone deacetylase 1 (Homo sapiens, UniProt Q13547)
HCT-116 = experiment: cells; format: functional, cell-based; conditions: Homo sapiens, HCT-116, 72 h
K562 = experiment: cells; format: functional, cell-based; conditions: Homo sapiens, K562, 72 h
Histone deacetylase 8 [3] = target: T1, Histone deacetylase 8; remark: listed apart in the source
U-937 [4] = experiment: Induction of cell cycle arrest in human U-937 cells assessed as accumulation of cells in G1 phase at 1 to 5 uM for 48 hrs by PI staining based flow cytometric analysis; format: functional; conditions: dose 1-5 µM
U-937 [5] = experiment: Induction of cell cycle arrest in human U-937 cells assessed as accumulation of cells in pre-G1 phase at 5 uM for 24 hrs by PI staining based flow cytometric analysis; format: functional
OCI-AML-3 = experiment: Antiproliferative activity against human OCI-AML-3 cells incubated for 48 hrs; format: functional, cell-based; conditions: OCI-AML-3, 48 h
OCI-AML2 = experiment: Antiproliferative activity against human OCI-AML2 cells incubated for 48 hrs; format: functional, cell-based; conditions: OCI-AML2, 48 h
HL-60 = experiment: Antiproliferative activity against human HL-60 cells incubated for 48 hrs; format: functional, cell-based; conditions: HL-60, 48 h
NB-4 = experiment: Antiproliferative activity against human NB4 cells incubated for 48 hrs; format: functional, cell-based; conditions: NB-4, 48 h
U-937 [6] = experiment: Antiproliferative activity against human U-937 cells incubated for 48 hrs; format: functional, cell-based; conditions: U-937, 48 h
Kasumi 1 = experiment: Antiproliferative activity against human Kasumi 1 cells incubated for 48 hrs; format: functional, cell-based; conditions: Kasumi 1, 48 h
[7] = Antiproliferative activity against human IMS-M2 cells incubated for 48 hrs; format: functional, cell-based; conditions: IMS-M2, 48 h
MV4-11 = experiment: Antiproliferative activity against human MV4-11 cells incubated for 48 hrs; format: functional, cell-based; conditions: MV4-11, 48 h
KARPAS-299 = experiment: Antiproliferative activity against human KARPAS-299 cells incubated for 48 hrs; format: functional, cell-based; conditions: KARPAS-299, 48 h

Histone deacetylase 3, sequence (O15379 whole entry): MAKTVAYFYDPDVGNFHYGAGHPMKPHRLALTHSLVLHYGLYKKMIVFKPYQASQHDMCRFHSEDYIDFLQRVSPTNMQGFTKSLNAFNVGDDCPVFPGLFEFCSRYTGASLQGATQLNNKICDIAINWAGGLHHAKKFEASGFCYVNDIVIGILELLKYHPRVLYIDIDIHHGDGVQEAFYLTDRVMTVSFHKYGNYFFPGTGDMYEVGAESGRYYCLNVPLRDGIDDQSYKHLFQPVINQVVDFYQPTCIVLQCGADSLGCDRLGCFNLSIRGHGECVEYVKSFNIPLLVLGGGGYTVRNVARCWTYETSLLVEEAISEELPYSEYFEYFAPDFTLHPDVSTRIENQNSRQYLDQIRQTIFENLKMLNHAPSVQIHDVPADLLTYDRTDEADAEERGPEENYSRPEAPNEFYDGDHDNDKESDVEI
Histone deacetylase 4, sequence (P56524 whole entry): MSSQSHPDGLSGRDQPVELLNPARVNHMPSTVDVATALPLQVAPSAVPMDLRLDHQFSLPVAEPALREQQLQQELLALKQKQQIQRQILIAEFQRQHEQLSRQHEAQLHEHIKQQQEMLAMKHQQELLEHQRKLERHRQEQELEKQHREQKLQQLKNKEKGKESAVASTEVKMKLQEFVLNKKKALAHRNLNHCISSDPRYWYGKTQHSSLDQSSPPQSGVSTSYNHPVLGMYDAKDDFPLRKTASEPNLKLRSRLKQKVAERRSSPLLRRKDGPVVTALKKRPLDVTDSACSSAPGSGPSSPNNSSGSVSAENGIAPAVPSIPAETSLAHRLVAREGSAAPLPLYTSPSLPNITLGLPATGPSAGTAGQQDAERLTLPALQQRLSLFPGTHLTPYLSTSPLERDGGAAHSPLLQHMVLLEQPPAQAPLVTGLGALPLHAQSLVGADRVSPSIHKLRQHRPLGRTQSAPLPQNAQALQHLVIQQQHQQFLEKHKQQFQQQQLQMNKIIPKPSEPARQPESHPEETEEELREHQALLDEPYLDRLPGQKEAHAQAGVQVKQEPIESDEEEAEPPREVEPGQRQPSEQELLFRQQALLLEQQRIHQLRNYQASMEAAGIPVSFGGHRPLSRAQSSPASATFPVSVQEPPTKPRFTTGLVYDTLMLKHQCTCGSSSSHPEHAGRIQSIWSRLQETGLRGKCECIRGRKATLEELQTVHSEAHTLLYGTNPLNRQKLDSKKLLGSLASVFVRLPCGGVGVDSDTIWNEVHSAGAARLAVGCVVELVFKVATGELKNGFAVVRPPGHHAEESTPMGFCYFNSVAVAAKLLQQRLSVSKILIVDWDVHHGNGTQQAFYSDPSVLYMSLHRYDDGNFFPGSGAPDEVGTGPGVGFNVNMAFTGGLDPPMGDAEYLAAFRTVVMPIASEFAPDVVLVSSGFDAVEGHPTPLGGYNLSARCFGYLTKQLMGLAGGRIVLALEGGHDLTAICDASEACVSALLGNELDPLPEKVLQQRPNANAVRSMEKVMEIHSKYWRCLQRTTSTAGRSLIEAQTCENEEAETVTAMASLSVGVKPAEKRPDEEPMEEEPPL
Histone deacetylase 1, sequence (Q13547 whole entry): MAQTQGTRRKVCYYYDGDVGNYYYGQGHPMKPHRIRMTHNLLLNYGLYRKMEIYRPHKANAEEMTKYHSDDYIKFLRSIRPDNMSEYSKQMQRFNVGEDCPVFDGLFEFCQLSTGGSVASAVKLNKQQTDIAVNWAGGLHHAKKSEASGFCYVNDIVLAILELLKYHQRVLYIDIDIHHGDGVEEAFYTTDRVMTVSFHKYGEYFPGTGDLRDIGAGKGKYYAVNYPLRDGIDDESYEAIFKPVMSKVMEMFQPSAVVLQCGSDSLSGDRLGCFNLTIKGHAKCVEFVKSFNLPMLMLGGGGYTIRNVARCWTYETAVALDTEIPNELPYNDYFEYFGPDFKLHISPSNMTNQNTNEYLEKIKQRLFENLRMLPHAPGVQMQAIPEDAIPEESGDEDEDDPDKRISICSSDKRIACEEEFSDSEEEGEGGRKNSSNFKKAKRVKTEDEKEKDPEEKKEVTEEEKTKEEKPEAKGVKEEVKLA

| SMILES | pIC50 (Histone deacetylase 3) | pIC50 (Histone deacetylase 8 [1]) | pIC50 (A549) | IC50 [2] | IC50 (Histone deacetylase 4) | pIC50 (Histone deacetylase 1) | pIC50 (HCT-116) | pIC50 (K562) | pIC50 [2] | pIC50 (Histone deacetylase 4) | also measured |
| --- | --- | --- | --- | --- | --- | --- | --- | --- | --- | --- | --- |
| Nc1ccccc1NC(=O)/C=C/c1ccc(NC(=O)Cc2ccc3ccccc3c2)cn1 | 6.38 | 4.11 | 5.13 | Not Active | Not Active | 6.69 | 5.49 | 5.77 |  |  |  |
| CCC(C(=O)Nc1ccc(/C=C/C(=O)Nc2ccccc2N)nc1)c1ccccc1 (centres undefined) | 6.57 | 4.45 |  | Not Active | Not Active | 6.84 |  |  |  |  |  |
| CCC(C(=O)Nc1ccc(C(=O)NO)nc1)c1ccccc1 (centres undefined) | 6.11 | 6.02 | 5.26 |  |  | 5.83 | 5.77 | 5.75 | 7.29 | 4.11 |  |
| Nc1ccccc1NC(=O)/C=C/c1ccc(NC(=O)C(Cc2ccccc2)c2ccccc2)cn1 (centres undefined) | 6.22 |  | 5.37 | Not Active | Not Active | 6.30 | 5.56 | 5.73 |  |  | IC50 (Histone deacetylase 8 [3]): Not Active |
| O=C(Cc1cccc2ccccc12)Nc1ccc(C(=O)NO)nc1 | 5.86 | 5.74 |  |  |  | 5.55 |  |  | 7.24 | 4.51 |  |
| Nc1ccccc1NC(=O)/C=C/c1ccc(NC(=O)Cc2ccccc2)cn1 | 6.65 | 4.50 |  | Not Active | Not Active | 6.97 |  |  |  |  |  |
| O=C(Cc1ccc2ccccc2c1)Nc1ccc(C(=O)NO)nc1 | 6.68 | 6.01 |  |  |  | 4.03 |  |  | 6.91 | 4.80 |  |
| CC(C)C(C(=O)Nc1ccc(/C=C/C(=O)NO)nc1)c1ccccc1 (centres undefined) | 7.55 | 6.77 | 6.23 |  |  | 7.09 | 6.59 | 6.74 | 8.00 | 4.80 |  |
| O=C(CCCCCCC(=O)Nc1ccccc1)NO [VORINOSTAT] |  |  |  |  |  |  |  |  |  |  | Activity (U-937 [4]): 70%; Activity (U-937 [5]): 10% |
| CCC(C(=O)Nc1ccc(C(=O)Nc2ccccc2N)nc1)c1ccccc1 (centres undefined) | 6.36 | 4.18 |  | Not Active | Not Active | 6.49 |  |  |  |  |  |
| Nc1ccccc1NC(=O)c1ccc(CNc2nccc(-c3cccnc3)n2)cc1 [MOCETINOSTAT] |  |  |  |  |  |  |  |  |  |  | pIC50 (OCI-AML-3): 5.75; pIC50 (OCI-AML2): 5.81; pIC50 (HL-60): 6.38; pIC50 (NB-4): 6.39; pIC50 (U-937 [6]): 5.86; pIC50 (Kasumi 1): 6.82; pIC50 [7]: 6.18; pIC50 (MV4-11): 6.72; pIC50 (KARPAS-299): 5.38 |
| CC(C)C(C(=O)Nc1ccc(/C=C/C(=O)Nc2ccccc2N)nc1)c1ccccc1 (centres undefined) | 6.50 | 4.37 | 5.24 | Not Active | Not Active | 6.82 | 5.36 | 5.54 |  |  |  |
| O=C(/C=C/c1ccc(NC(=O)Cc2ccc3ccccc3c2)cn1)NO | 6.77 | 6.00 | 6.22 |  |  | 6.42 | 6.68 | 6.89 | 6.95 | 4.75 |  |
| Nc1ccccc1NC(=O)c1ccc(NC(=O)Cc2ccccc2)cn1 | 6.61 | 4.11 | 5.87 | Not Active | Not Active | 6.70 | 6.25 | 6.27 |  |  |  |
| Nc1ccccc1NC(=O)c1ccc(NC(=O)Cc2cccc3ccccc23)cn1 | 6.54 | 4.01 |  | Not Active | Not Active | 6.89 |  |  |  |  |  |
| CC(C)C(C(=O)Nc1ccc(C(=O)Nc2ccccc2N)nc1)c1ccccc1 (centres undefined) | 6.31 | 4.12 |  | Not Active | Not Active | 6.48 |  |  |  |  |  |
| O=C(/C=C/c1ccc(NC(=O)Cc2ccccc2)cn1)NO | 7.11 | 6.74 | 5.53 |  |  | 7.17 | 6.06 | 6.04 | 7.89 | 4.71 |  |
| O=C(Cc1ccccc1)Nc1ccc(C(=O)NO)nc1 | 5.69 | 5.96 |  |  |  | 5.52 |  |  | 6.76 | 4.08 |  |
| Nc1ccccc1NC(=O)/C=C/c1ccc(NC(=O)Cc2cccc3ccccc23)cn1 | 6.58 |  | 5.03 | Not Active | Not Active | 7.20 | 5.08 | 5.50 |  |  | IC50 (Histone deacetylase 8 [3]): Not Active |
| CC(C)C(C(=O)Nc1ccc(C(=O)NO)nc1)c1ccccc1 (centres undefined) | 6.17 | 6.05 | 5.43 |  |  | 6.00 | 5.88 | 5.98 | 7.39 | 4.20 |  |
| O=C(NO)c1ccc(NC(=O)C(Cc2ccccc2)c2ccccc2)cn1 (centres undefined) | 6.82 | 5.96 | 5.58 |  |  | 6.11 | 5.98 | 6.31 | 7.80 | 4.41 |  |
| CCC(C(=O)Nc1ccc(/C=C/C(=O)NO)nc1)c1ccccc1 (centres undefined) | 7.44 | 6.98 |  |  |  | 7.11 |  |  | 7.96 | 4.77 |  |
